Data published in patent US20260124237A1, “CARTILAGE REGENERATION COMPOSITION” (KOBAYASHI PHARMACEUTICAL CO., LTD., priority 2021, published 2026).

What was measured:
Assay type in all cases: cell-based
[1] = tested on: human bone marrow-derived mesenchymal stem cells; assay: Induction of differentiation to cartilaginous cells in three-dimensional culture (safranin O area); conditions: for Differentiated cartilaginous cell area ratio: control = 1; for activity to induce differentiation to cartilaginous cells (in words): summary of Tables 4 to 11
Protocol: In accordance with Tissue Engineering, (US), 2010, 16 (1), p 81-91. DOI: 10.1089=ten.tec.2008.0693, mesenchymal stem cells were isolated from human normal bone marrow in a dedicated culture medium, and then the cells were grown. The grown cells were recovered, added with an equivalent amount of a cell freezing damage protection liquid CP-1 (KYOKUTO PHARMACEUTICAL INDUSTRIAL CO., LTD), and cryopreserved.
It is known that cartilaginous cells dedifferentiate in two-dimensional culture. As a culture system of cartilaginous cells closer to nature, a technique called three-dimensional culture is adopted. The thawed and grown human bone marrow-derived mesenchymal stem cells were dispensed into 15 mL tubes (made of TPP) by 2.5×10^5 cells, and centrifuged at 1000 rpm for 3 minutes at room temperature. The supernatant was removed and replaced with 0.5 mL of a culture medium to induce differentiation to cartilaginous cells in accordance with Document A. At the same time, as test substances, the garcinia extract, HCA·Ca, and/or the component (B) (components (B1) to (B4)) were added at the concentration shown in Tables 4 to 11. After cultured for 21 days, the cells were fixed in a 4% paraformaldehyde·phosphate buffer for 12 hours, dehydrated in 70% ethanol, and then embedded in paraffin, and then specimens were prepared. In the prepared specimen, the acidic polysaccharides as a cartilage matrix was stained with safranin O, and then the morphology of differentiated cartilaginous cells was observed using an optical microscope (magnification: 10 times). Furthermore, regarding the area showing a red color by safranin O staining, the relative area (differentiated cartilaginous cell area ratio) was calculated using an image analysis software Image J such that the control (Comparative Example 1) had the area of 1.
Except that the component (component (B4)) shown in Table 12 (a) and Table 12 (b) was used as the component (B), and the addition amount of the component (A) and the component (B) (component (B4)) was as shown in Table 12 (a) and Table 12 (b), the same procedure as in Test example 2 was carried out to calculate the differentiated cartilaginous cell area ratio and measure the amount of GAG. The results of the differentiated cartilaginous cell area ratio are shown in Table 12 (a) and Table 12 (b), and the measurement results of the amount of GAG are shown in FIG. 5.

[2] = tested on: human bone marrow-derived mesenchymal stem cells; assay: Cartilage matrix production activity (amount of GAG in pellets); conditions: FIGS. 1 to 4; pellets after 21 days three-dimensional culture, papain digestion
Protocol: LLC is solubilized in 100 mM phosphate buffer pH 7.4, 5 mM L-cysteine hydrochloride monohydrate, and 10 mM EDTA), and then the amount of GAG (glycosaminoglycan) was measured using a GAG quantification kit (manufactured by Blyscan). The larger the amount of GAG, the larger the amount of cartilage matrix produced. […] The results of the differentiated cartilaginous cell area ratio are shown in Table 12 (a) and Table 12 (b), and the measurement results of the amount of GAG are shown in FIG. 5.

[3] = tested on: Human iPS cell-derived mesenchymal stem cells; assay: Differentiation to cartilaginous cells and cartilage matrix production in two-dimensional culture (Alcian blue); conditions: Table 2a: garcinia extract or glucosamine (B4) alone; about 10 days culture; Alcian blue OD 620 nm; control = 1
From the text: In accordance with PLOS ONE, (US), 2014, 9 (12), e112291. DOI: 10.1371/journal.pone.0112291 (hereinafter, described as “Document A”), mesenchymal stem cells were induced from human normal iPS cells via neural crest cells, added with an equivalent amount of a cell freezing damage protection liquid CP-1 (manufactured by KYOKUTO PHARMACEUTICAL INDUSTRIAL CO., LTD), and cryopreserved.
Human iPS cell-derived mesenchymal stem cells were thawed and grown, and seeded in a 96 well plate (manufactured by Corning) in 1×10^5 cells/well. After 24 hours, the culture supernatant was removed, and replaced with a culture medium to induce differentiation to cartilaginous cells in accordance with Document A. To the culture medium to induce differentiation to cartilaginous cells, the garcinia extract and/or the component (B) (components (B1) to (B4)) as test substances were added so that the final concentration was the concentration shown in Tables 1 to 3. No test substance was added to the control group. The cells were cultured for about 10 days, and then fixed with a 4% paraformaldehyde·phosphate buffer (manufactured by FUJIFILM Wako Pure Chemical Corporation). After fixed, the cells were stained with an Alcian blue solution (manufactured by MUTO PURE CHEMICALS CO., LTD.) for 1 hour, and the dye was eluted using a 6 M guanidine hydrochloride solution (manufactured by Tokyo Chemical Industry Co., Ltd.). The eluate was transferred to a 96 well plate, and the OD value of each well at 620 nm was measured with a microplate reader to measure the amount of matrix produced by differentiation-induced cartilaginous cells.

[4] = Table 12a, Test Example 3: HCA·Ca 25 μM or constituent sugar (B4) 2.5 μM alone
[5] = Table 6: garcinia extract and/or glucosamine (B4), 21 days, safranin O red area
[6] = Table 7: HCA·Ca and/or glucosamine (B4), 21 days, safranin O red area

Compound | Differentiated cartilaginous cell area ratio [1, 4] | Ratio of cartilage matrix production [3] | other results
O=C[C@H](O)[C@@H](O)[C@H](O)[C@H](O)C(=O)O [compound 43, D-glucuronic acid] | 0.7 | – | –
N[C@H]1C(O)O[C@H](CO)[C@@H](O)[C@@H]1O (stereo partly shown) [glucosamine, Glucosamine] | – | – | activity to induce differentiation to cartilaginous cells (in words) [1]: reduce the activity to induce differentiation to cartilaginous cells; cartilage matrix production activity (amount of GAG, in words) [2]: reduce the cartilage matrix production activity
N[C@H]1C(O)O[C@H](CO)[C@@H](O)[C@@H]1O (stereo partly shown) [compound 8, Glucosamine] | – | 1.01 | –
Cl.N[C@H]1C(O)O[C@H](CO)[C@H](O)[C@@H]1O (stereo partly drawn) [compound 44, D-(+)-galactosamine hydrochloride] | 0.7 | – | –
Cl.N[C@H]1C(O)O[C@H](CO)[C@@H](O)[C@@H]1O (stereo partly drawn) [compound 40, D-(+)-glucosamine hydrochloride] | 0.6 | – | –
O=C([O-])C[C@@](O)(C(=O)[O-])[C@H](O)C(=O)[O-].O=C([O-])C[C@@](O)(C(=O)[O-])[C@H](O)C(=O)[O-].[Ca+2].[Ca+2].[Ca+2] [calcium hydroxycitrate, (−) Hydroxycitric acid-3 calcium] | – | – | activity to induce differentiation to cartilaginous cells (in words) [1]: exhibits an activity to induce differentiation to cartilaginous cells, the degree of which is limited; cartilage matrix production activity (amount of GAG, in words) [2]: exhibits a cartilage matrix production activity, the degree of which is limited
O=C([O-])C[C@@](O)(C(=O)[O-])[C@H](O)C(=O)[O-].O=C([O-])C[C@@](O)(C(=O)[O-])[C@H](O)C(=O)[O-].[Ca+2].[Ca+2].[Ca+2] [compound 39, (−) Hydroxycitric acid-3 calcium] | 1.8 | – | –
CC(=O)N[C@H]1C(O)O[C@H](CO)[C@@H](O)[C@@H]1O (stereo partly drawn) [compound 41, N-acetyl-D-glucosamine] | 1.8 | – | –
N[C@H]1C(O)O[C@H](CO)[C@@H](O)[C@@H]1O (stereo partly shown) [compound 12, Glucosamine] | – | 1.02 | –
Sodium hyaluronate [hyaluronic acid] | – | – | activity to induce differentiation to cartilaginous cells (in words) [1]: almost no activity to induce differentiation to cartilaginous cells; cartilage matrix production activity (amount of GAG, in words) [2]: almost no activity to induce differentiation to cartilaginous cells
N[C@H]1C(O)O[C@H](CO)[C@@H](O)[C@@H]1O (stereo partly shown) [compound 11, Glucosamine] | – | 1.01 | –
N[C@H]1C(O)O[C@H](CO)[C@@H](O)[C@@H]1O (stereo partly shown) [compound 34, Glucosamine] | – | – | Differentiated cartilaginous cell area ratio [1, 5]: 0.2; Differentiated cartilaginous cell area ratio [1, 6]: 0.2
O=C([O-])C[C@@](O)(C(=O)[O-])[C@H](O)C(=O)[O-].O=C([O-])C[C@@](O)(C(=O)[O-])[C@H](O)C(=O)[O-].[Ca+2].[Ca+2].[Ca+2] [compound 32, (−) Hydroxycitric acid-3 calcium] | – | – | Differentiated cartilaginous cell area ratio ([1]; Table 5: HCA·Ca and/or chondroitin sulfate (B1), 21 days, safranin O red area): 1.7; Differentiated cartilaginous cell area ratio [1, 6]: 1.7; Differentiated cartilaginous cell area ratio ([1]; Table 9: HCA·Ca and/or hyaluronic acid (B3), 21 days, safranin O red area): 3.5; Differentiated cartilaginous cell area ratio ([1]; Table 11: HCA·Ca and/or proteoglycan (B2), 21 days, safranin O red area): 1.5
N[C@H]1C(O)O[C@H](CO)[C@@H](O)[C@@H]1O (stereo partly shown) [compound 14, Glucosamine] | – | 1.00 | –
N[C@H]1C(O)O[C@H](CO)[C@@H](O)[C@@H]1O (stereo partly shown) [compound 6, Glucosamine] | – | 1.00 | –
N[C@H]1C(O)O[C@H](CO)[C@@H](O)[C@@H]1O (stereo partly shown) [compound 10, Glucosamine] | – | 1.01 | –
N[C@H]1C(O)O[C@H](CO)[C@@H](O)[C@@H]1O (stereo partly shown) [compound 7, Glucosamine] | – | 1.01 | –
N[C@H]1C(O)O[C@H](CO)[C@@H](O)[C@@H]1O (stereo partly shown) [compound 33, Glucosamine] | – | – | Differentiated cartilaginous cell area ratio [1, 5]: 0.1; Differentiated cartilaginous cell area ratio [1, 6]: 0.1
CC(=O)N[C@H]1C(O)O[C@H](COS(=O)(=O)[O-])[C@H](O)[C@@H]1O.[Na+] (stereo partly drawn) [compound 46, Sodium N-acetyl-D-galactosamine 6-sulfate] | 1.4 | – | –
CC(=O)N[C@H]1C(O)O[C@H](COS(=O)(=O)[O-])[C@@H](O)[C@@H]1O.[Na+] (stereo partly drawn) [compound 42, Sodium N-acetyl-D-glucosamine 6-sulfate] | 2 | – | –
N[C@H]1C(O)O[C@H](CO)[C@@H](O)[C@@H]1O (stereo partly shown) [compound 13, Glucosamine] | – | 1.00 | –
N[C@H]1C(O)O[C@H](CO)[C@@H](O)[C@@H]1O (stereo partly shown) [compound 9, Glucosamine] | – | 1.01 | –
CC(=O)N[C@H]1C(O)O[C@H](CO)[C@H](O)[C@@H]1O (stereo partly drawn) [compound 45, N-acetyl-D-galactosamine] | 1 | – | –
